Reference: patent publication US12293809B2, “Workflow for generating compounds with biological activity against a specific biological target” (INSILICO MEDICINE IP LIMITED, priority 2019, dated 2025)

What was measured:
[1] = target: T1, CYP1A2 (Homo sapiens, UniProt P05177); assay: Cytochrome inhibition in HLM; format: in vitro ADME
T1 construct: from tissue; host or cells: human liver microsomes (HLM)
T1 sequence (P05177 1-516): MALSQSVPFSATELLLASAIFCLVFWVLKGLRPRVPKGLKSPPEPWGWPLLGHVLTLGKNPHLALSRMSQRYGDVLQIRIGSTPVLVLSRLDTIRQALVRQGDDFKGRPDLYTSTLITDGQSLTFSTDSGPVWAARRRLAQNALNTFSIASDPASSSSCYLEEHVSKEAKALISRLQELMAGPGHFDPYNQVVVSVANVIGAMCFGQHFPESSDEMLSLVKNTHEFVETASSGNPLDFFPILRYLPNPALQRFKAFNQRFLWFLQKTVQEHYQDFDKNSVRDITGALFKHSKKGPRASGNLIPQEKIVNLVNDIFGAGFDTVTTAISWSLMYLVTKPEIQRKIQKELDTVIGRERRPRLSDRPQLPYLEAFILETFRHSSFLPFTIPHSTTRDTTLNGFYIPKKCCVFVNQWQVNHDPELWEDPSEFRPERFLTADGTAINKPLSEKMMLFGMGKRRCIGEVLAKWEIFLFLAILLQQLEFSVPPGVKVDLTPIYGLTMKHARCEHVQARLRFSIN
Experimental: Water used in the assay and analysis was purified by ELGA Lab purification systems. Potassium phosphate buffer (PB) in concentration of 100 mM and MgCl2 in concentration of 33 mM were used. […] Microsomes were pulled out of the −80° C. freezer to thaw on ice, labeled the date and put back to freezer immediately after using. 20 μL of the substrates solutions were added to corresponding wells. 20 μL PB were added to Blank wells. 2 μL of the test compounds and positive control working solution were added to corresponding wells. Then, HLM working solution was prepared. 158 μL of the HLM working solution was added to all wells of incubation plate. The plate was pre-warmed for about 10 min at 37° C. water bath. Then, NADPH cofactor solution was prepared. 20 μL NADPH cofactor was added to all incubation wells. The solution was mixed and incubated for 10 minutes at 37° C. water bath. At the time point, the reaction was terminated by adding 400 μL cold stop solution (200 ng/mL Tolbutamide and 200 ng/mL Labetalol in ACN). The samples were centrifuged at 4000 rpm for 20 minutes to precipitate protein. 200 μL supernatant was transferred to 100 μL HPLC water and shaken for 10 min. XL fit was used to plot the percent of vehicle control versus the test compound concentrations, and for non-linear regression analysis of the data.

[2] = test system: CTGF expression in MRC-5 cells; assay: MRC-5 fibrosis assay, TGF-β stimulated (Western blot); format: cell-based
Experimental: (§1) After 20 h growth in the reduced serum medium, the cells were treated with indicated doses of compounds for 30 minutes. Subsequently, the cells were stimulated with 10 ng/mL TGF-β (R&D Systems, 240-B-002) for 48 or 72 hours.

[3] = test system: α-actin expression in MRC-5 cells; assay: as above; format: cell-based
Experimental: as §1

[4] = test system: LX-2 cells; assay: Cytotoxicity, CellTiter-Glo cell viability assay; format: cell-based, human; conditions: 72 h
Experimental: LX-2 cells were seeded into 96 well plates in the presence of a compound and allowed to grow for 72 h before CellTiter-Glo® Luminescent Cell Viability Assay was carried out according the manufacturer's instruction.

[5] = target: T2, hDDR2 (Homo sapiens, UniProt Q16832); assay: KinaseProfiler radiometric biochemical kinase assay (Eurofins)
T2 construct: purchased Eurofins
T2 sequence (Q16832 22-855): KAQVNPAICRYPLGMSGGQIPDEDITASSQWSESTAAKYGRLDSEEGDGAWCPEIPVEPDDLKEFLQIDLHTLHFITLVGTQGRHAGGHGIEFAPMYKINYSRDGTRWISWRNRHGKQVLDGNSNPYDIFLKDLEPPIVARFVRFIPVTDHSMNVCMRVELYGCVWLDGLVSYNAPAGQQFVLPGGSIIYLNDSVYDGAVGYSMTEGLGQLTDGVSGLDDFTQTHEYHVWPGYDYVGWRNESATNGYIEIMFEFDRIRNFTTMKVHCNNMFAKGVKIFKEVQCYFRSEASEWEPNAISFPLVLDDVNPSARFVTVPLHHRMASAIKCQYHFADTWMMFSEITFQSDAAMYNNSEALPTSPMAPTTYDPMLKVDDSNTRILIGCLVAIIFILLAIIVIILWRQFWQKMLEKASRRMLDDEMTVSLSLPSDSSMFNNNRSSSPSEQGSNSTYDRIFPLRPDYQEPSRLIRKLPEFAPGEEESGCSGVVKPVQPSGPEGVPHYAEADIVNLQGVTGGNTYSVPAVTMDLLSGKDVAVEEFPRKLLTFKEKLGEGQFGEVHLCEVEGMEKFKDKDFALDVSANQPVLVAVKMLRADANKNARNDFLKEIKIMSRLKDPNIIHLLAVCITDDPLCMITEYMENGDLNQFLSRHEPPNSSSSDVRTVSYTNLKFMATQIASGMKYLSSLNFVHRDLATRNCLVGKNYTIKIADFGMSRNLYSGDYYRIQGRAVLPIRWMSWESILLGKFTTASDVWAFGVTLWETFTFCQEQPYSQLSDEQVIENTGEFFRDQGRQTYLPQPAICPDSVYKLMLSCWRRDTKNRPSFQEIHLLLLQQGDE
Experimental: The experimental procedures were performed by Eurofins. The activity of the molecules against hDDR1 and hDDR2 kinases was assessed using KinaseProfiler^67. […] The enzymatic reaction processed in the presence of Mg^2+ cations and ATP at room temperature for 40 minutes and terminated by addition of phosphoric acid. […] All the compounds were prepared in 100% DMSO. […] The biological evaluation of selectivity against non-target kinases was performed in Dundee Eurofins, using Scan Max Delta Panel [10 μM ATP] KinaseProfiler^68.

activity towards DDR2 weaker than for DDR1 ([5]; DDR2 vs DDR1) [times]	Structure (SMILES)	IC50 [1] [µM]	effect on CTGF expression ([2]; all the concentrations used)	dose dependence of effect on α-actin expression ([3]; MRC-5)	CC50 [4] [µM]	concentration of highest activity in CTGF assay (close to negative control) ([2]; MRC-5) [µM]	concentration of maximum inhibition of α-actin expression ([3]; MRC-5) [µM]	maximum effect on α-actin expression ([3]; at 0.37 μM) [fold]	SI (selectivity index) DDR2 vs DDR1 [5]	IC50 ([5]; read-out: IC50 towards DDR2 kinase) [µM]
23	Cc1ccc2c(Nc3cccc(C(F)(F)F)c3)noc2c1C#Cc1cnc2cccnn12 [Compound 1]	7.36	no inhibition potency	robust dose-dependent effect	3.3					
	O=C(Nc1cccc(C(=O)N2CCN(c3ccnc4[nH]ccc34)C2)c1)c1cccc(C(F)(F)F)c1 [Compound 2]	10.6			7.3	0.041	0.37	1.5	3.6	0.076
